# Assay results taken from patent US20220331467A1, “HALAL DISINFECTANT LIQUID” (priority 2019, published 2022).
# Columns and labels:
# [1] = system: guinea pig skin; settings: female, Slc:Hartley, in vivo
# Method: To find information related to the skin sensitization of a chlorous acid aqueous solution formulation, a Maximization Test was conducted using 20 female Slc:Hartley guinea pigs (SPF). […] In the test substance treatment group, 0.2 w/v % test substance solution (medium: distilled water) was intradermally injected in the first sensitization treatment using 10 animals, and a closed patch of 100% test substance solution (undiluted solution) was applied for 48 hours in the second sensitization treatment. A closed patch of 20 w/v % test substance solution was applied for 24 hours for elicitation treatment.
# The prepared administered solutions (1) to (3) (section 14.9.1) of each test group were intradermally injected at 0.1 mL each to correspond to administration sites (1) to (3) in image 1.
# The chest and back (image 1, site (4)) of an animal were shaved using an electric clipper and shaver on day 7. Open patch of 10% sodium dodecyl sulfate mixture (section 14.9.2) was applied thinly and homogeneously at the same site to a test substance treatment group and negative control group. […]
# The body weight was measured before starting sensitization treatment (day 0) and the day of completion of observation of elicitation treatment sites (day 25). […]
# The skin sensitization rate is calculated as [(number of sensitization positive animals/number of animals used)×100].
# [2] = system: rabbit skin; experiment: Skin irritability test using rabbits (OECD 404); format: in vivo; settings: 0.5 mL patch, 4 hours exposure
# Method: To study the skin irritability and corrosiveness of a chlorous acid aqueous solution formulation, a skin irritability test was conducted using three female Kbl:NZW rabbits. The irritability reaction was compared by setting a three rabbit sodium hypochlorite formulation treatment group as a comparative control group. 0.5 mL of test substance was applied homogenously to a lint patch and exposed 4 hours to the skin on the back of the rabbits. […] In addition, the body weight before administration and at the end of observation was measured.
# For administration, 0.5 mL of test substance was spread homogeneously on the lint surface of a 2.45×2.45 cm patch (lint cloth, Hasegawa Menkou) by using a MICROMAN (model M1000, Gilson), and then applied to the back skin of animals using a paper adhesive tape (KENZ). Furthermore, the entire treatment site was covered with a large lint cloth (Hasegawa Menkou), which was secured with an adhesive bandage (New-HALE, Hasegawa Menkou). Exposure time was 4 hours. The patch was removed after completion of exposure. […]
# Erythema, eschar formation, and edema at sites of administration were observed 1, 24, 48, and 72 hours after patch removal, and scored in accordance with determination criteria for skin reactions (Draize, 1959). […]
# The body weight was measured on the administration date (before administration) and date of completion of observation for all tested animals. […]
# [3] = system: eye; settings: OECD TG 405; cited from earlier work
Compound,"Number of animals showing the sign: General condition, No abnormality observed [1]",Number of positive animal [1],GHS hazard category of dermal irritation/corrosion [2],Severe injury to eye or eye irritability (GHS category) [3]
"CCCCCCC(C=O)=Cc1ccccc1 [HCA, α-Hexylcinnamaldehyde]",0,5,,
"OCl [Sodium hypochlorite, sodium hypochlorite]",,,Category 1,Category 1
"CCO [Ethanol 95 v/v %, Ethanol]",,,,Category 2B
